pIC50: −log10 of the molar value. Structures can show the parent of a compound that is named as a salt.
Key:
Assay type in all cases: biochemical
Human LOXL2 = target: T1, Human LOXL2 (Homo sapiens, UniProt Q9Y4K0); experiment: LOXL2 amine oxidase inhibition, peroxidase-coupled Amplex Red assay; settings: 30 min preincubation at 37° C., putrescine substrate
T1 sequence (Q9Y4K0 26-774): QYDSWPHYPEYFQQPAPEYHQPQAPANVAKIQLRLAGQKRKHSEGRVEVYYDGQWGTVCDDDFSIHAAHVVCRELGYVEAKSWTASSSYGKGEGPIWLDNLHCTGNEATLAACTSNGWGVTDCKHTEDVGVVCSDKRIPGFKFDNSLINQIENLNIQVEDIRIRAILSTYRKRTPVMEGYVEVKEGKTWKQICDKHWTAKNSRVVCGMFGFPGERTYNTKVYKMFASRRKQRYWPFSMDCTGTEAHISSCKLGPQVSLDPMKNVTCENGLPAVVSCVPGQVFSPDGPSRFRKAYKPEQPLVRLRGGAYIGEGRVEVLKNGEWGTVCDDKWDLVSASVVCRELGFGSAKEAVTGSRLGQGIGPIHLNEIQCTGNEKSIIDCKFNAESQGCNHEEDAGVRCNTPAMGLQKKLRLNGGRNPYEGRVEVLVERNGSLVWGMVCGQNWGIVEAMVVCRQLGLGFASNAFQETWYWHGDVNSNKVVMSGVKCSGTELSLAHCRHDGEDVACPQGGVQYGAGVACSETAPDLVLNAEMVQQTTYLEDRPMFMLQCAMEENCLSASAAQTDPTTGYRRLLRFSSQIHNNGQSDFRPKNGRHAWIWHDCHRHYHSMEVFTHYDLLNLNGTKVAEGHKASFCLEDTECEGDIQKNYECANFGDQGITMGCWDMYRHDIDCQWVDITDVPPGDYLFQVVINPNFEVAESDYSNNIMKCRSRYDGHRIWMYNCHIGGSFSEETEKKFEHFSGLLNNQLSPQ
Text: (§1) Method to Determine the Ability of Compounds of the Invention to Inhibit LOX and LOXL1-4 from Different Sources
(§2) Lysyl oxidase (LOX) is an extracellular copper dependent enzyme which oxidizes peptidyl lysine and hydroxylysine residues in collagen and lysine residues in elastin to produce peptidyl alpha-aminoadipic-delta-semialdehydes. […] There are five LOX family members; these are LOX, LOXL1, LOXL2, LOXL3 and LOXL4. LOX and LOXL family members can be acquired as recombinant active proteins from commercial sources, or extracted from animal tissues like bovine aorta, tendons, pig skin; or prepared from cell cultures. The inhibitory effects of the compounds of the present invention were tested against the given LOX-LOXL preparation using a high-throughput coupled colorimetric method (Holt A. and Palcic M., A peroxidase-coupled continuous absorbance plate-reader assay for flavin monoamine oxidases, copper-containing amine oxidases and related enzymes. Nat. Protoc. 2006; 1: 2498-2505). The assay was developed using either 384 or 96 well format. Briefly, in a standard 384 well plate assay 25 μL of a dilution of any of the isoenzymes and orthologues in 1.2 M urea, 50 mM sodium borate buffer (pH 8.2) were added into each well in the presence of 1 μM mofegiline and 0.5 mM pargyline (to inhibit SSAO and MAO-B and MAO-A, respectively). Test compounds were dissolved in DMSO and tested in a Concentration Response Curve (CRC) with 11 data points, typically in the micromolar or nanomolar range after incubation with the enzyme for 30 min at 37° C. Twenty five μL of a reaction mixture containing twice the KM concentration of putrescine (Sigma Aldrich, e.g. 20 mM for LOX, or 10 mM for LOXL2 and LOXL3), 120 μM Amplex Red (Sigma Aldrich) and 1.5 U/mL horseradish peroxidase (Sigma Aldrich) prepared in 1.2 M urea, 50 mM sodium borate buffer (pH 8.2) were then added to the corresponding wells. The above volumes were doubled in the case of 96 wells plate. The fluorescence (RFU) was read every 2.5 min for 30 min at a range of temperatures from 37° to 45° C., excitation 565 nm and emission 590 (Optima; BMG labtech). The slope of the kinetics for each well was calculated using MARS data analysis software (BMG labtech) and this value was used to deduce the IC50 value (Dotmatics).

Recombinant human MAO-B = target: T2, Recombinant human MAO-B (Homo sapiens, UniProt P27338); experiment: Human recombinant MAO-B inhibition; settings: benzylamine 100 μM
T2 construct: purchased Sigma Aldrich
T2 sequence (P27338 1-520): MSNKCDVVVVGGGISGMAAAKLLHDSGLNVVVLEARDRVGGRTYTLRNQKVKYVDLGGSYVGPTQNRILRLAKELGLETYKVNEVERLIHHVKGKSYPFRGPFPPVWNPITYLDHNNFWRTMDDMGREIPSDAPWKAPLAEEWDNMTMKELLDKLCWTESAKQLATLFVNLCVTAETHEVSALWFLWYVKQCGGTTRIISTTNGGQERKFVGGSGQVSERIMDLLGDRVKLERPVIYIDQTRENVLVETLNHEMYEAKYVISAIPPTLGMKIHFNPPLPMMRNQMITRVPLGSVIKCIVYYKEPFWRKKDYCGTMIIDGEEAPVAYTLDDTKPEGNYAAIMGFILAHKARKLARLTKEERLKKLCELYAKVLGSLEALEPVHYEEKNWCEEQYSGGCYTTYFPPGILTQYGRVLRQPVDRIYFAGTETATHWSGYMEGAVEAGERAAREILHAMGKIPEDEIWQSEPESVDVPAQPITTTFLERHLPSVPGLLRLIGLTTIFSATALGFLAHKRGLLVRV
Experimental: Method to Determine the Ability of Compounds of Formula I to Inhibit Human Recombinant MAO-B
The specificity of the compounds of this invention was tested by determining their ability to inhibit MAO-B activities in vitro. Recombinant human MAO-B (0.06 mg/mL; Sigma Aldrich) was used as source of MAO-B enzyme activities. The assay was performed in a similar way as for human SSAO/VAP-1 (Example 46) except, the substrate benzylamine was used at 100 μM.

Bovine LOX = target: T3, Bovine LOX (Bos taurus, UniProt P33072); experiment: LOX amine oxidase inhibition, peroxidase-coupled Amplex Red assay; settings: 30 min preincubation at 37° C., putrescine substrate
T3 sequence (P33072 170-418): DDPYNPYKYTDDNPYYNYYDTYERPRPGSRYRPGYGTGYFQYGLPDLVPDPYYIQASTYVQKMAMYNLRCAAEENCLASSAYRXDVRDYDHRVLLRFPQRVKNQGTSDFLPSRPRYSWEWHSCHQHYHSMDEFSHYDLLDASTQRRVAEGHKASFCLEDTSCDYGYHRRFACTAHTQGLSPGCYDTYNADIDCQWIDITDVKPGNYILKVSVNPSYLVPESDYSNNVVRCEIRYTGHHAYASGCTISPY
Text: as §1
as §2, with “Test compounds were dissolved in DMSO and tested in a Concentration Response Curve (CRC) with 11 data points, typically in the micromolar or nanomolar range after incubation with the enzyme for 30 min at 37° C.” left out

pIC50 (Human LOXL2) | pIC50 (Recombinant human MAO-B) | pIC50 (Bovine LOX) | Structure (SMILES)
< 6.00 |  | < 5.00 | Cc1nn(C/C(F)=C/CN)c(C(C)(C)O)c1Cc1ccc(S(=O)(=O)N(C)C)c(Cl)c1 [Compound 54, (Z)-4-((1-(4-amino-2-fluorobut-2-en-1-yl)-5-(2-hydroxypropan-2-yl)-3-methyl-1H-pyrazol-4-yl)methyl)-2-chloro-N,N-dimethylbenzenesulfonamide hydrochloride]
> 6.00 |  | > 5.00 | Cc1c(Cc2ccc(S(=O)(=O)N(C)C)c(Cl)c2)c(C(F)(F)F)nn1C/C(F)=C/CN [Compound 57, (Z)-4-((1-(4-amino-2-fluorobut-2-en-1-yl)-5-methyl-3-(trifluoromethyl)-1H-pyrazol-4-yl)methyl)-2-chloro-N,N-dimethylbenzenesulfonamide hydrochloride]
> 6.00 |  | < 5.00 | CC(C)c1nn(C/C(F)=C/CN)c(C(C)O)c1Cc1ccc(S(=O)(=O)N(C)C)cc1Cl (stereo not shown) [Compound 58, (Z)-4-((1-(4-amino-2-fluorobut-2-en-1-yl)-5-(1-hydroxyethyl)-3-isopropyl-1H-pyrazol-4-yl)methyl)-3-chloro-N,N-dimethylbenzenesulfonamide hydrochloride]
> 6.00 |  | > 5.00 | Cc1nn(C/C(F)=C/CN)c(C(C)C)c1Cc1ccc(S(=O)(=O)N(C)C)c(Cl)c1 [Compound 65, (Z)-4-((1-(4-amino-2-fluorobut-2-en-1-yl)-5-isopropyl-3-methyl-1H-pyrazol-4-yl)methyl)-2-chloro-N,N-dimethylbenzenesulfonamide hydrochloride]

Second part, the compound before the results:

Structure (SMILES) | pIC50 (Human LOXL2) | pIC50 (Recombinant human MAO-B) | pIC50 (Bovine LOX)
Cc1nn(C/C(F)=C/CN)c(C(C)O)c1Cc1ccc(S(=O)(=O)N(C)C)c(Cl)c1 (stereo not shown) [Compound 36, (Z)-4-((1-(4-amino-2-fluorobut-2-en-1-yl)-5-(1-hydroxyethyl)-3-methyl-1H-pyrazol-4-yl)methyl)-2-chloro-N,N-dimethylbenzenesulfonamide] | > 6.00 | < 4.52 | < 5.00
Cc1nn(C/C(F)=C/CN)c(C)c1Cc1ccc(S(N)(=O)=O)c(Cl)c1 [Compound 51, (Z)-4-((1-(4-amino-2-fluorobut-2-en-1-yl)-3,5-dimethyl-1H-pyrazol-4-yl)methyl)-2-chlorobenzenesulfonamide hydrochloride] | > 6.00 |  | > 5.00
Cc1nn(C/C(F)=C/CN)c(CO)c1Cc1ccc(S(=O)(=O)N(C)C)cc1Cl [Compound 55, (Z)-4-((1-(4-amino-2-fluorobut-2-en-1-yl)-5-(hydroxymethyl)-3-methyl-1H-pyrazol-4-yl)methyl)-3-chloro-N,N-dimethylbenzenesulfonamide hydrochloride] | > 6.00 |  | > 5.00
Cc1nn(C/C(F)=C/CN)c(C(F)(F)F)c1Cc1ccc(S(=O)(=O)N(C)C)c(Cl)c1 [Compound 56, (Z)-4-((1-(4-amino-2-fluorobut-2-en-1-yl)-3-methyl-5-(trifluoromethyl)-1H-pyrazol-4-yl)methyl)-2-chloro-N,N-dimethylbenzenesulfonamide hydrochloride] | > 6.00 |  | > 5.00
Cc1nn(Cc2ccc(S(=O)(=O)N(C)C)c(Cl)c2)c(C(C)O)c1C/C(F)=C/CN (stereo not drawn) [Compound 63, (Z)-4-((4-(4-amino-2-fluorobut-2-en-1-yl)-5-(l-hydroxyethyl)-3-methyl-1H-pyrazol-1-yl)methyl)-2-chloro-N,N-dimethylbenzenesulfonamide hydrochloride] | > 6.00 |  | > 5.00
CC(C)c1nn(Cc2ccc(S(=O)(=O)N(C)C)c(Cl)c2)c(C(C)C)c1C/C(F)=C/CN [Compound 64, (Z)-4-((4-(4-amino-2-fluorobut-2-en-1-yl)-3,5-diisopropyl-1H-pyrazol-1-yl)methyl)-2-chloro-N,N-dimethylbenzenesulfonamide hydrochloride] | > 6.00 |  | > 5.00
Cc1c(Cc2ccc(S(=O)(=O)N(C)C)c(Cl)c2)c(C(C)C)nn1C/C(F)=C/CN [Compound 66, (Z)-4-((1-(4-amino-2-fluorobut-2-en-1-yl)-3-isopropyl-5-methyl-1H-pyrazol-4-yl)methyl)-2-chloro-N,N-dimethylbenzenesulfonamide hydrochloride] | > 6.00 |  | > 5.00
CS(=O)(=O)c1cccc(-c2cnn(C/C(F)=C/CN)c2)c1 [Compound 67, (Z)-3-fluoro-4-(4-(3-(methylsulfonyl)phenyl)-1H-pyrazol-1-yl)but-2-en-1-amine hydrochloride] | > 6.00 |  | > 5.00
